Laboratory results from patent US4719229A, “Antihypercholesterolemic agents” (Merck & Co., Inc., priority 1987, dated 1988).

Target: T1, HMG-CoA reductase (Rattus norvegicus, UniProt P51639)
T1 construct: from tissue; inferred from the cited J. Med. Chem. 1985, 28, 347
T1 sequence (P51639 1-887): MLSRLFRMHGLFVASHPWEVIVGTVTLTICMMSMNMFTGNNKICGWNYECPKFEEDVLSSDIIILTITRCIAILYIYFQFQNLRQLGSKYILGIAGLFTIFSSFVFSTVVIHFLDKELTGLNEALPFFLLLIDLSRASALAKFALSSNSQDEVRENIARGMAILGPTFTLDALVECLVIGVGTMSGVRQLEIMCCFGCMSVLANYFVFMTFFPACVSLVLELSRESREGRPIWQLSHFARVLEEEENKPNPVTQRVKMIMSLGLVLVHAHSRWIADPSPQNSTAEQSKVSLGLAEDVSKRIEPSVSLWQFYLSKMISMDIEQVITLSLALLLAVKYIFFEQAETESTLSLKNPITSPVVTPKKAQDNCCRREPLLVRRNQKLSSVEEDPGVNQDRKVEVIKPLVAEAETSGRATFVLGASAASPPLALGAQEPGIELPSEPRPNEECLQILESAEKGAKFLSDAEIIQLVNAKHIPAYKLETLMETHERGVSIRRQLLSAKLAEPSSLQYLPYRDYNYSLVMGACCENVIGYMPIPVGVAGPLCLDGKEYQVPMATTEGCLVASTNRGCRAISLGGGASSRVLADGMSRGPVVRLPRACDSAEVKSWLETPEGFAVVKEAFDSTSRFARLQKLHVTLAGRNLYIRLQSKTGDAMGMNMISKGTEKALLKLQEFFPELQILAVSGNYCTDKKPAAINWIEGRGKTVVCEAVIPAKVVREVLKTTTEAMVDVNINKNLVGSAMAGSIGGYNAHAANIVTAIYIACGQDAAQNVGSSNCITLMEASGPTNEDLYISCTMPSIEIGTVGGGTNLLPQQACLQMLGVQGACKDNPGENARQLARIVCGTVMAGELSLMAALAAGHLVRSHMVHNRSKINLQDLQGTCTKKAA
Experiment: intrinsic HMG-CoA reductase inhibition activity, in vitro protocol of J. Med. Chem., 1985, 28, page 347
Format: biochemical
Settings: tested as the potassium salt
Description: The intrinsic HMG-CoA reductase inhibition activity of the claimed compounds is measured in the in vitro protocol described is J. Med. Chem., 1985, 28, page 347.

## C[C@@H]1CC[C@H]2C(=CC(O)[C@H](C)[C@@H]2CC[C@@H](O)C[C@@H](O)CC(=O)O)C1 (stereo partly shown)
  IC50: 5.87 µM
